Test results reported in paper PMC9928118, “Funneling modulatory peptide design with generative models: Discovery and characterization of disruptors of calcineurin protein-protein interactions” (PLOS Computational Biology, 2023).

Test system: GST-tagged Cn
Assay: PEPperPRINT peptide microarray binding assay with GST-tagged Cn
Method in brief: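 Qualitative binding: peptides printed on a PEPperPRINT microarray were incubated overnight at 4 °C with 1 mg/ml GST-tagged Cn, then detected with Alexa-Fluor 647 anti-GST antibody. Log fluorescence was baseline-corrected, averaged over duplicate spots, Z-normalized and averaged across five repeats.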

[1] = max over the chip locations listed for the peptide (two spots)
[2] = mean over the chip locations listed for the peptide (two spots)
[3] = max over the spots listed under Location on chip
[4] = mean over the spots listed under Location on chip
[5] = GST-tagged Cn, max over the spots on the chip (two locations)
[6] = GST-tagged Cn, mean over the spots on the chip (two locations)
[7] = GST-tagged Cn, max over the chip locations
[8] = GST-tagged Cn, mean over the chip locations
[9] = GST-tagged Cn, max over the chip spots listed under Location on chip
[10] = GST-tagged Cn, mean over the chip spots listed under Location on chip
[11] = GST-tagged Cn, max over the spots named in Location on chip
[12] = GST-tagged Cn, mean over the spots named in Location on chip

## WAGCDTWVFSIWRWIA [Seqrandom_10000]
[1]
  Chip Fluorescence (max): 3.486
[2]
  Chip Fluorescence (mean): 0.3128

## SPSNPPEIIISSREDN [SeqKCNN2_Mus_musculus]
[3]
  Chip Fluorescence (max): 3.195
[4]
  Chip Fluorescence (mean): 0.7018

## GYDIDPAISFDSDLML [Seqshuffled_9502]
[3]
  Chip Fluorescence (max): 3.174
[4]
  Chip Fluorescence (mean): 2.023

## PSALIPSLSMDPSMSE [SeqRBM_6067]
[1]
  Chip Fluorescence (max): 4.106
[2]
  Chip Fluorescence (mean): 0.6019

## TFWTNPQFKITLTEPD [SeqRBMlowT_689]
[5]
  Chip Fluorescence (max): 1.036
[6]
  Chip Fluorescence (mean): -0.78

## NVSSSPRVTLKIPQHR [SeqRBM_7185]
[5]
  Chip Fluorescence (max): 1.102
[6]
  Chip Fluorescence (mean): 0.1459

## RQGAGPILVLEGHWDA [SeqRBM_4400]
[3]
  Chip Fluorescence (max): 3.288
[4]
  Chip Fluorescence (mean): -1.788

## TFWTNPQFVVSLEEPD [SeqRBMlowT_8096]
[5]
  Chip Fluorescence (max): 1.137
[6]
  Chip Fluorescence (mean): -0.6823

## VETIRPGVVTEPMEAG [SeqRBM_4600]
[3]
  Chip Fluorescence (max): 3.238
[4]
  Chip Fluorescence (mean): 1.278

## HSKSIPKFSFQSPVHH [SeqRBMlowT_1680]
[7]
  Chip Fluorescence (max): 0.06895
[8]
  Chip Fluorescence (mean): -0.7142

## LKDESPEVRLNIISSL [SeqRBMlowT_1855]
[3]
  Chip Fluorescence (max): 3.106
[4]
  Chip Fluorescence (mean): 1.095

## TNSHNPQVDLKIPQVR [SeqRBMlowT_6893]
[1]
  Chip Fluorescence (max): 5.271
[2]
  Chip Fluorescence (mean): 0.9753

## KAYMCPFMQFIEGGRR [SeqSFB3_Pan_troglodytes]
[9]
  Chip Fluorescence (max): 0.9778
[10]
  Chip Fluorescence (mean): -1.603

## KVTTLKSVSPAIAAPE [Seqshuffled_1741]
[9]
  Chip Fluorescence (max): 0.7857
[10]
  Chip Fluorescence (mean): -0.5033

## MRRERSNRAMFKVNQH [Seqrandom_9977]
[11]
  Chip Fluorescence (max): 1.743
[12]
  Chip Fluorescence (mean): -0.1357

## KAYMSPFMQFVDAGRR [SeqSFB3_Nasonia_vitripennis]
[11]
  Chip Fluorescence (max): 1.597
[12]
  Chip Fluorescence (mean): -0.04342

## AHVSVPVIVVSPGETI [SeqRBM_3486]
[7]
  Chip Fluorescence (max): 0.2381
[8]
  Chip Fluorescence (mean): -0.4942

## DSHTVDPIPINPHSAV [SeqRBM_5538]
[9]
  Chip Fluorescence (max): 0.9715
[10]
  Chip Fluorescence (mean): -0.655

## QGYKNPSAQFEPIGTK [SeqRBM_6874]
[7]
  Chip Fluorescence (max): -0.3081
[8]
  Chip Fluorescence (mean): -1.163

## SSRSSSRPARSPERKP [SeqRGA2_Fusarium_oxysporum]
[1]
  Chip Fluorescence (max): 4.629
[2]
  Chip Fluorescence (mean): 0.8375

## TFWTNPQYRVKLEDPD [SeqRBMlowT_28]
[11]
  Chip Fluorescence (max): 1.52
[12]
  Chip Fluorescence (mean): 0.4012

## PALESPRIEITSYLGM [SeqNFATC1_Canis_lupus]
[11]
  Chip Fluorescence (max): 1.5159
[12]
  Chip Fluorescence (mean): -0.48

## KKMAPPCINIDFAPEN [SeqRBMlowT_2474]
[11]
  Chip Fluorescence (max): 1.579
[12]
  Chip Fluorescence (mean): 0.1538

## TFWTNPQYRLKVTDPD [SeqRBMlowT_5581]
[3]
  Chip Fluorescence (max): 3.3
[4]
  Chip Fluorescence (mean): 1.547

## VEEAFPQIIISAEELP [SeqTRESK_Tarsius_syrichta]
[11]
  Chip Fluorescence (max): 1.401
[12]
  Chip Fluorescence (mean): -0.4076

## PNLYENTLGIEQFTLS [SeqRBM_7749]
[11]
  Chip Fluorescence (max): 1.865
[12]
  Chip Fluorescence (mean): 0.2079

## SSLECPHVQVTVSGQR [SeqRBM_6881]
[11]
  Chip Fluorescence (max): 1.51
[12]
  Chip Fluorescence (mean): 0.9297

## RLFSVCEQEEEIERAP [Seqshuffled_9643]
[1]
  Chip Fluorescence (max): 4.044
[2]
  Chip Fluorescence (mean): 1.1677

## RAYINPFMQFNDGGSR [SeqRBM_9542]
[5]
  Chip Fluorescence (max): 1.138
[6]
  Chip Fluorescence (mean): 0.2992

## KSSSSPSASINVPQSN [SeqRBM_1871]
[1]
  Chip Fluorescence (max): 3.993
[2]
  Chip Fluorescence (mean): 1.569

## TFWTNPQFRITLEDVD [SeqRBMlowT_966]
[3]
  Chip Fluorescence (max): 2.9488
[4]
  Chip Fluorescence (mean): 0.108

## PMLVFRALRIHESPLP [Seqshuffled_9670]
[9]
  Chip Fluorescence (max): 0.8908
[10]
  Chip Fluorescence (mean): 0.2837

## QTEDQPGIIVHTAMLP [SeqRCN1_Bactrocera_dorsalis]
[9]
  Chip Fluorescence (max): 0.5479
[10]
  Chip Fluorescence (mean): -0.783

## FSFMCPDSNTNHDQVS [SeqRBM_6801]
[9]
  Chip Fluorescence (max): 0.3774
[10]
  Chip Fluorescence (mean): -0.7887

## PSEDQPGIVVHVCEED [SeqRBMlowT_124]
[1]
  Chip Fluorescence (max): 4.395
[2]
  Chip Fluorescence (mean): 0.1564

## ADGAGVGIVITVTEAE [SeqRBMlowT_1411]
[5]
  Chip Fluorescence (max): 1.31
[6]
  Chip Fluorescence (mean): -0.2973

## RQPGQALLTLRGHSAP [SeqRBMlowT_5806]
[11]
  Chip Fluorescence (max): 1.328
[12]
  Chip Fluorescence (mean): -0.3044

## RNPGQALLELKGHSAQ [SeqRBMlowT_7734]
[5]
  Chip Fluorescence (max): 1.17
[6]
  Chip Fluorescence (mean): -0.1022

## TFWTNPQYRITVTEPD [SeqRBMlowT_7465]
[9]
  Chip Fluorescence (max): 0.8889
[10]
  Chip Fluorescence (mean): -0.4265

## GELAIKNMKPWDVGGY [SeqRBM_3830]
[3]
  Chip Fluorescence (max): 3.053
[4]
  Chip Fluorescence (mean): 1.402

## SQFDQVHYGLHIATFH [Seqshuffled_4372]
[5]
  Chip Fluorescence (max): 1.111
[6]
  Chip Fluorescence (mean): 0.4902

## ADQELSSFQPFYIEAS [Seqshuffled_9636]
[9]
  Chip Fluorescence (max): 0.9604
[10]
  Chip Fluorescence (mean): 0.1044

## SSKSLPTFSFSSPVSH [SeqRBMlowT_6060]
[11]
  Chip Fluorescence (max): 1.331
[12]
  Chip Fluorescence (mean): 0.1061

## RQPGQALLTLRGHSKS [SeqRBMlowT_7741]
[3]
  Chip Fluorescence (max): 2.813
[4]
  Chip Fluorescence (mean): 0.6175

## TFNTNPQYTIQVVWPD [SeqRBM_7110]
[7]
  Chip Fluorescence (max): -0.1833
[8]
  Chip Fluorescence (mean): -1.179

## QLRDIFQGRMITILTP [Seqshuffled_3466]
[9]
  Chip Fluorescence (max): 0.7348
[10]
  Chip Fluorescence (mean): -0.3913

## SQAKSPRIEITAYTHV [SeqRBM_8514]
[9]
  Chip Fluorescence (max): 0.9232
[10]
  Chip Fluorescence (mean): -0.444

## KKMSPPCISVDPPDEL [SeqCACNA1H_Nothobranchius_rachovii]
[5]
  Chip Fluorescence (max): 1.26
[6]
  Chip Fluorescence (mean): -0.004401

## RKDSAVTQWGFSNLWA [Seqrandom_9950]
[1]
  Chip Fluorescence (max): 4.744
[2]
  Chip Fluorescence (mean): 1.033

## GAWGLNKSGLFLINEV [Seqshuffled_9399]
[1]
  Chip Fluorescence (max): 7.244
[2]
  Chip Fluorescence (mean): 0.4206

## VKLVIIQVRSASVDAN [SeqRBM_6437]
[7]
  Chip Fluorescence (max): -0.5934
[8]
  Chip Fluorescence (mean): -1.618

## VQLKIPQLRVSSVSKP [SeqLCORL_2_Sus_scrofa]
[9]
  Chip Fluorescence (max): 0.981
[10]
  Chip Fluorescence (mean): -0.5484

## TFWTNPQFKITLEDPD [SeqRBMlowT_205]
[11]
  Chip Fluorescence (max): 1.84
[12]
  Chip Fluorescence (mean): -0.4239

## TSPDQPCIDVHQSESE [SeqRBM_4309]
[3]
  Chip Fluorescence (max): 2.7949
[4]
  Chip Fluorescence (mean): 0.9383

## RNPGSPVLELEGHSAS [SeqRBMlowT_6392]
[7]
  Chip Fluorescence (max): -0.1475
[8]
  Chip Fluorescence (mean): -0.4043

## TFWTNPQYRITVTDED [SeqRBMlowT_7478]
[9]
  Chip Fluorescence (max): 0.9083
[10]
  Chip Fluorescence (mean): -0.5067

## LAFALPAFSFAAMKSA [SeqRBM_4599]
[7]
  Chip Fluorescence (max): -0.5301
[8]
  Chip Fluorescence (mean): -2.0266

## NICTSLTLVETDPTVY [Seqshuffled_9501]
[3]
  Chip Fluorescence (max): 2.929
[4]
  Chip Fluorescence (mean): 1.69

## TFWTNPQFKVKLEEVD [SeqRBMlowT_284]
[5]
  Chip Fluorescence (max): 1.062
[6]
  Chip Fluorescence (mean): -0.1705

## KDKAGKRSHLKGHSES [Seqshuffled_5410]
[9]
  Chip Fluorescence (max): 0.8078
[10]
  Chip Fluorescence (mean): -0.09052

## SKMAIAIYQMASCLLH [Seqshuffled_9384]
[11]
  Chip Fluorescence (max): 1.655
[12]
  Chip Fluorescence (mean): 0.8527

## TFWTNPQFKITLEEED [SeqRBMlowT_217]
[1]
  Chip Fluorescence (max): 4.393
[2]
  Chip Fluorescence (mean): 0.02338

## YFFDRDTGAGKIEQEH [Seqrandom_9991]
[3]
  Chip Fluorescence (max): 2.629
[4]
  Chip Fluorescence (mean): -0.3443

## VFWANPQFEVTLREDD [SeqRBM_5060]
[11]
  Chip Fluorescence (max): 1.773
[12]
  Chip Fluorescence (mean): 0.03485

## KAYMCPFMQFIEGGRR [SeqRBMlowT_535]
[9]
  Chip Fluorescence (max): 0.9778
[10]
  Chip Fluorescence (mean): -1.603

## TFWTNPQYRLKLEDVD [SeqRBMlowT_929]
[1]
  Chip Fluorescence (max): 6.02
[2]
  Chip Fluorescence (mean): 1.294

## NMATVPAVTMGEVART [SeqRBM_5293]
[3]
  Chip Fluorescence (max): 2.99
[4]
  Chip Fluorescence (mean): -0.7897

## TFWTNPQYRLKLLEED [SeqCAPN11_Tupaia_chinensis]
[1]
  Chip Fluorescence (max): 4.428
[2]
  Chip Fluorescence (mean): 0.5574

## SNLACNDRHPNNEDAK [Seqshuffled_9450]
[1]
  Chip Fluorescence (max): 5.333
[2]
  Chip Fluorescence (mean): 1.133

## RAYINPFMQFIDGGRF [SeqRBMlowT_3663]
[9]
  Chip Fluorescence (max): 0.6841
[10]
  Chip Fluorescence (mean): -0.1666

## PDEAQPGIVVHVCELP [SeqRBMlowT_301]
[5]
  Chip Fluorescence (max): 1.28
[6]
  Chip Fluorescence (mean): 0.6681

## ASGLSPRIEITPSHEL [SeqNFATC2_Homo_sapiens]
[5]
  Chip Fluorescence (max): 0.9983
[6]
  Chip Fluorescence (mean): 0.1363

## VYWSNPQFIVKLEMVD [SeqRBM_6287]
[3]
  Chip Fluorescence (max): 2.588
[4]
  Chip Fluorescence (mean): 1.027

## MLDAIPEVVVSPPEEP [SeqRBM_4087]
[11]
  Chip Fluorescence (max): 1.659
[12]
  Chip Fluorescence (mean): -0.168

## TFWTNPQYRLKLEDPD [SeqRBMlowT_1296]
[1]
  Chip Fluorescence (max): 7.375
[2]
  Chip Fluorescence (mean): 1.564

## KKMAPPCINIDPAPEN [SeqRBMlowT_2431]
[1]
  Chip Fluorescence (max): 3.662
[2]
  Chip Fluorescence (mean): 0.8549

## HVSSSPDVTLKIPQHR [SeqRBMlowT_2187]
[9]
  Chip Fluorescence (max): 0.8915
[10]
  Chip Fluorescence (mean): -0.5849
